For series [1] the following is noted: male, Han Wistar, rat, in vivo, po, 4 h. As to the method:
(§1) Plasma was placed on water-ice following collection. Final storage at approximately −70° C.
Mass spectrometer (UPCLC-MS/MS) Waters Acquity I-Class-Waters Xevo TQ-S. Analytical column Acquity HSS T3 C18 50×2.1 mm, 1.8 μm. Mobile phase A: 10 mM NH4-Formate 0.2% formic acid:Acetonitril (95:5). Mobile phase B: 10 mM NH4-Formate 0.2% formic acid:Acetonitril (5:95). Gradient run from 95/5% to 5/95% in 2.40 min. Flow rate 0.3 mL/min. MRM detection of test items and the added analytical standards
The rats had unrestricted access to the diet. Male Han Wistar rats were administered a single dose of apomorphine either subcutaneously or orally by gavage, or administered a single dose of apormorphine conjugates orally by gavage.

For series [2] the following is noted: in man after oral dosing; cited from earlier work.
The nature of series [3]: Stability of the disulfate in acidic conditions (LCMS). It counts as physicochemical. Particulars: LCMS with acidic eluent.
In series [4] the test system is hepatocytes from rat. In words: Conversion to compound (I) in rat hepatocytes. Particulars: 1 μg/mL, 37° C., 0.25-60 minutes, FIG. 7a. It counts as in vitro ADME. As to the method: (§2) The cell concentration at incubation was 1×10^6 viable cells/mL. The incubations were performed in glass tubes at 37° C. with a total incubation volume of 3.5 mL and with duplicate incubations for each test item. The 3.5 mL of hepatocyte suspension was equilibrated for 10 minutes in a water bath set to 37° C. where after the incubations were initiated by adding 3.5 μL of a stock solution of the test item in DMSO (Dimethyl sulfoxide) and gently inverting the tubes. The final solvent concentration in the incubations was 0.1% DMSO. Samples of 600 μL were withdrawn from the incubations at the pre-determined time points of 0.25, 5, 15, 30 and 60 minutes after ensuring homogeneity of hepatocyte suspensions. The withdrawn volume was added to 1 mL Nunc cryo tubes on wet ice containing 60 μL of ice cold ascorbic acid (100 mg/mL) and 30 μL of ice cold 100 mM saccharic acid 1.4-lactone in 0.5 M citric acid. The tubes were mixed and 35 μL of a solution of ice cold 20% formic acid was added. The tubes were mixed thoroughly and stored at −80° C. awaiting analysis. Analysis method and Instrumentation used for analysis of (I) from dosing (Id-ia), (Id-ib), (Id-iia) and (Id-iib), were the one described in Examples 4 and 5 below in the section “Instrumentation used for analysis of compound (I) from dosing of compounds (Ic), (Id-ia), (Id-ib), (Id-iia), (Id-iib), (Id-iab) and (Id-iiab).”
(§3) Analysis method and Instrumentation used for analysis of (I) from dosing (Id-iab) and (Id-iiab) consisted of mixing equal aliquots of the samples and precipitation solution (acetonitrile (MeCN) with 10% methanol (MeOH) and 1% formic acid), followed by centrifugation at 4° C. at 16000 g for 10 minutes. Supernatants were collected and analysed by LC-MS/MS. Mass spectrometer: Waters Acquity—Waters Xevo TQ-MS. Analytical column: Acquity UPLC HSS T3, 100×2.1 mm, 1.8 μm. Mobile phase A: 0.2% formic acid in water. Mobile phase B: 0.2% formic acid in acetonitrile. Gradient run from 95/5% to 60/40 in 5 min. Flow rate 0.3 mL/min. MRM monitoring of (I) in the study samples and in the analytical standards.

Series [5] can be described thus: PK experiments in rats: plasma compound (I) after oral dosing of prodrugs. It counts as in vivo, Han Wistar rats. As to conditions: Wistar rats, FIG. 2, doses equal to 287 μg/kg of compound (I). On the procedure:
as §1
Mobile phase B: Acetonitrile. […] Flow rate 0.5 mL/min.
The rats had unrestricted access to the diet.
Mobile phase B: Acetonitrile+0.2% formic acid. […] Flow rate 0.3 mL/min.
Han Wistar rats were supplied by Envigo, UK. […] The rats received a standard laboratory diet Teklad 2014C. The rats had unrestricted access to the diet.

Series [6] deals with hepatocytes from human. As to the kind of experiment: Conversion to compound (I) in human hepatocytes. As to conditions: 1 μg/mL, 37° C., 0.25-60 minutes, FIG. 7b. It counts as in vitro ADME. As to the method:
as §2, §3

The target in series [7] is human D2 receptor (Homo sapiens (Human), UniProt P14416). As to the kind of experiment: Dopamine D2 receptor agonism, calcium mobilization assay. It counts as cell-based. Particulars: normalized to 1 μM dopamine = 100%. On the procedure:
Dopamine D2 receptor agonism was measured using a calcium mobilization assay protocol developed by HD Biosciences (China). Briefly, HEK293/G15 cells expressing human D2 receptor were plated at a density of 15000 cells/well in clear-bottomed, Matrigel-coated 384-well plates and grown for 24 hrs at 37° C. in the presence of 5% CO2. The cells were incubated with calcium-sensitive fluorescent dye, Fluo8, for 60-90 minutes at 37° C. in the dark. Test compounds were prepared at 3-fold concentrated solution in 1×HBSS buffer with Ca^2+ and Mg^2+. Calcium Flux signal was immediately recorded after compounds were added from compound plate to cell plate at FLIPR (Molecular Devices). The fluorescence data were normalized to yield responses for no stimulation (buffer) and full stimulation (1 μM of dopamine) of 0% and 100% stimulation, respectively. Test compound potency (EC50) was estimated by nonlinear regression using the sigmoidal dose-response (variable slope) using Xlfit 4 (IDBS, Guildford, Surrey, UK, model 205). y=(A+((B−A)/(1+((C/x)^D)))) where y is the normalized ratio measurement for a given concentration of test compound, x is the concentration of test compound, A is the estimated efficacy at infinite compound dilution, and B is the maximal efficacy. C is the EC50 value and D is the Hill slope coefficient. EC50 estimates were obtained from independent experiment and the logarithmic average was calculated.
For orientation: Calcium flux is commonly read through the fluorescence of an indicator in the cells.

Series [8] has as its target human D1 receptor (Homo sapiens (Human), UniProt P21728). In words: Dopamine D1 receptor agonism, HTRF cAMP assay. As to conditions: normalized to 30 uM dopamine = 100%. It counts as cell-based. On the procedure: Dopamine D1 receptor agonism was measured using a HTRF cAMP from CisBio using the protocol developed by HD Biosciences (China). Briefly, the assay is a homogeneous time resolved-fluorescence resonance energy transfer (HTRF) assay that measures production of cAMP by cells in a competitive immunoassay between native cAMP produced by cells and cAMP-labeled with XL-665. A cryptate-labeled anti-cAMP antibody visualizes the tracer. The assay was performed in accordance with instructions from manufacturer.
Test compounds were added to wells of microplates (384 format). HEK-293 cells expressing the human D1 receptor were plated at 1000 cells/well and incubated 30 min at room temperature. cAMP-d2 tracer was added to wells and followed by addition of Anti-cAMP antibody-cryptate preparation and incubated for 1 h at room temperature in dark. HTRF cAMP was measured by excitation of the donor with 337 nm laser (the “TRF light unit”) and subsequent (delay time 100 microseconds) measurement of cryptate and d2 emission at 615 nm and 665 nm over a time window of 200 microseconds with a 2000 microseconds time window between repeats/100 flashes). HRTF measurements were performed on an Envision microplate reader (PerkinElmer). The HTRF signal was calculated as the emission-ratio at 665 nm over 615 nm. The HTRF ratio readout for test compounds was normalized to 0% and 100% stimulation using control wells with DMSO-solvent or 30 uM dopamine. Test compound potency (EC50) was estimated by nonlinear regression using the sigmoidal dose-response (variable slope) using Xlfit 4 (IDBS, Guildford, Surrey, UK, model 205). y=(A+((B−A)/(1+((C/x)^D)))) where y is the normalized HTRF ratio measurement for a given concentration of test compound, x is the concentration of test compound, A is the estimated efficacy at infinite compound dilution, and B is the maximal efficacy. C is the EC50 value and D is the Hill slope coefficient. EC50 estimates were obtained from an independent experiment and the logarithmic average was calculated. Dopamine D2 Receptor Agonism

The conditions of series [9]: Liu et al., Bioorganic Med. Chem. (2008); cited from earlier work.
The target of series [10] is human 5-HT2B receptor (Homo sapiens (Human), UniProt P41595). In words: 5-HT2B agonist activity assay (IP1 production, HTRF). It counts as cell-based. As to conditions: read-out: 5-HT2B Emax. On the procedure: Evaluation of the agonist activity of compounds (I), (Ia) and (Ib) at the human 5-HT2B receptor was performed by Eurofins/Cerep (France) measuring the compound effects on inositol monophosphate (IP1) production using the HTRF detection method. Briefly, the human 5-HT2B receptor was expressed in transfected CHO cells. The cells were suspended in a buffer containing 10 mM Hepes/NaOH (pH 7.4), 4.2 mM KCl, 146 mM NaCl, 1 mM CaCl2, 0.5 mM MgCl2, 5.5 mM glucose and 50 mM LiCl, then distributed in microplates at a density of 4100 cells/well and incubated for 30 min at 37° C. in the presence of buffer (basal control), test compound or reference agonist. For stimulated control measurement, separate assay wells contained 1 μM 5-HT. Following incubation, the cells were lysed and the fluorescence acceptor (fluorophen D2-labeled IP1) and fluorescence donor (anti-IP1 antibody labeled with europium cryptate) were added. After 60 min at room temperature, the fluorescence transfer was measured at lambda(Ex) 337 nm and lambda(Em) 620 and 665 nm using a microplate reader (Rubystar, BMG). The IP1 concentration was determined by dividing the signal measured at 665 nm by that measured at 620 nm (ratio). The results were expressed as a percent of the control response to 1 μM 5-HT. The standard reference agonist was 5-HT, which was tested in each experiment at several concentrations to generate a concentration-response curve from which its EC50 value is calculated as described above for dopamine functional assays.
human 5-HT2B receptor, sequence (P41595 whole entry): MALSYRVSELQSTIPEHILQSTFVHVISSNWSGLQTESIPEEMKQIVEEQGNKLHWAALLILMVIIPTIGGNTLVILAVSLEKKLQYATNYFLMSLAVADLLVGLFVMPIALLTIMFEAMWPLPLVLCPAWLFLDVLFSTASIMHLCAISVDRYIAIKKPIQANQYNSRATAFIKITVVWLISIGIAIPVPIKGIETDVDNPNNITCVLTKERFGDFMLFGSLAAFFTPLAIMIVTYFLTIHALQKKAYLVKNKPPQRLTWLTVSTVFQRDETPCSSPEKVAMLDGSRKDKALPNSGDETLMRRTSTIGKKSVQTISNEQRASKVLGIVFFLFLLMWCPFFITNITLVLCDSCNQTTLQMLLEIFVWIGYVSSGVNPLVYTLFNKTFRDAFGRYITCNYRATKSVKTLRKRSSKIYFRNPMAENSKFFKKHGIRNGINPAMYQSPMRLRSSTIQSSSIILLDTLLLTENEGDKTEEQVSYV
(Time-resolved FRET reads energy transfer from a long-lived donor to a nearby acceptor.)

The structures appear in SMILES notation. Where a name gives a salt, the structure may show the parent alone.

human D2 receptor, sequence (P14416 whole entry): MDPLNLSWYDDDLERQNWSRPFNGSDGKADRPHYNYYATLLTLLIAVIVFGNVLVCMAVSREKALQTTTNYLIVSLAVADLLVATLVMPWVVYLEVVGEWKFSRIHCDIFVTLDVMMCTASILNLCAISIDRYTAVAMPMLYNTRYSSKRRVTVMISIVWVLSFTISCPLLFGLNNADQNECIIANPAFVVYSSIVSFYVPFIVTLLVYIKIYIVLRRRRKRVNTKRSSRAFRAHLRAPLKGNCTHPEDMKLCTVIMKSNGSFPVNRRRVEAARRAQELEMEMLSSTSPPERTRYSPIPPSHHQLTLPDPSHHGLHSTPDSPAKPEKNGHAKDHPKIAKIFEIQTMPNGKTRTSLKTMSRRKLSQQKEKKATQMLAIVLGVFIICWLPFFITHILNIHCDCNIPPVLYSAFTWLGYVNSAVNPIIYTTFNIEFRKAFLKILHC
human D1 receptor, sequence (P21728 whole entry): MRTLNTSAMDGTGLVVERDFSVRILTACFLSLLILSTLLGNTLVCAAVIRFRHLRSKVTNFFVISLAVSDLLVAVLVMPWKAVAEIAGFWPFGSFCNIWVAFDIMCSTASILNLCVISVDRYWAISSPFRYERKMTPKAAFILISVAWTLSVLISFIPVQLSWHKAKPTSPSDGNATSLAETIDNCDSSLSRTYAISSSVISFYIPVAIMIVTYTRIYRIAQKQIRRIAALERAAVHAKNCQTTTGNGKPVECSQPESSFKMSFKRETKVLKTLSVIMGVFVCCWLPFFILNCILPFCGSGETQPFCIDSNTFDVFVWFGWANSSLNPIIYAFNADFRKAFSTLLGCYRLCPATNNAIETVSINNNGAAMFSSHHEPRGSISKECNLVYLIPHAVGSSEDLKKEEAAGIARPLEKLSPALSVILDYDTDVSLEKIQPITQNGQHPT

As to `CN1CCc2cccc3c2[C@H]1Cc1ccc(O[C@@H]2O[C@H](C(=O)O)[C@@H](O)[C@H](O)[C@H]2O)c(O)c1-3` [(2S,3S,4S,5R,6S)-6-[[(6aR)-11-hydroxy-6-methyl-5,6,6a,7-tetrahydro-4H-dibenzo[de,g]quinolin-10-yl]oxy]-3,4,5-trihydroxy-tetrahydropyran-2-carboxylic acid], the “apomorphine in plasma at one time point” value in series [1] was found to be 916 pg/mL.

Take `CCCc1cc2c(s1)CN[C@@H]1CCc3cc(OC(C)=O)c(OC(C)=O)cc3[C@@H]21` [Adrogolide]: the oral bioavailability in series [2] was ~4%.

In the case of `CCCN1CCC[C@@H]2Cc3c(ccc(OS(=O)(=O)O)c3OS(=O)(=O)O)C[C@H]21` [(Id-iiab), (4aR,10aR)-1-propyl-1,2,3,4,4a,5,10,10a-octahydrobenzo[g]quinoline-6,7-diyl bis(hydrogen sulfate)], in [3], the “stability in acidic conditions (in words)” value is recorded as “instability”. The “conversion to compound (I) in rat hepatocytes” value in series [4] is given as “could not be detected”. In series [5], the “plasma profile of compound (I) after oral dosing (in words)” value is “slower absorption rate avoiding rapid peak concentrations accompanied by a sustained exposure of compound (I) in plasma”. Also, in series [6], the “conversion to compound (I) in human hepatocytes” value is given as “could not be detected”.

For the molecule `CCCN1CCC[C@@H]2Cc3c(ccc(O)c3O)C[C@H]21` [(I), (4aR,10aR)-1-n-Propyl-1,2,3,4,4a,5,10,10a-octahydro-benzo[g]quinoline-6,7-diol, reference compound], the Emax in series [7] worked out at 91%; in [8] it was 99%; in [10], 50%. For the same molecule, the “oral bioavailability (in words)” value in series [9] is reported as “low oral bioavailability”.

By Emax is commonly meant the size of the effect at its maximum, as opposed to the concentration needed.

The record behind these values is patent publication US10729710B2, “Catecholamine prodrugs for use in the treatment of Parkinson's disease” (H. Lundbeck A/S, priority 2017, dated 2020).
